Test results as given in ChEMBL document CHEMBL1201862, “PubChem BioAssay data set” (2004).
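Assay format: 96-well plates, 48-hour exposure. GI50 = concentration required for 50% inhibition of growth.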 Calls of active or inactive are those of the source. Cut-off read from the data, not from the text of the source: active = GI50 up to about 1.1 µM and inactive = higher.

Columns and labels:
Experiment in all cases: DTP human tumour cell line panel, 48 h
786-0 = tested on: 786-0
A498 = tested on: A498
A549 = tested on: A549
ACHN = tested on: ACHN
CAKI-1 = tested on: CAKI-1
CCRF-CEM = tested on: CCRF-CEM
COLO 205 = tested on: COLO 205
DLD-1 = tested on: DLD-1
DMS-273 = tested on: DMS-273
EKVX = tested on: EKVX
HCC 2998 = tested on: HCC 2998
HCT-116 = tested on: HCT-116
HL-60 = tested on: HL-60
HOP-62 = tested on: HOP-62
HT-29 = tested on: HT-29
IGROV-1 = tested on: IGROV-1
K562 = tested on: K562
KM-20L2 = tested on: KM-20L2
KM12 = tested on: KM12
LOX IMVI = tested on: LOX IMVI
LXFL 529 = tested on: LXFL 529
M14 = tested on: M14
M19-MEL = tested on: M19-MEL
MOLT-4 = tested on: MOLT-4
Malme-3M = tested on: Malme-3M
NCI-H226 = tested on: NCI-H226
NCI-H23 = tested on: NCI-H23
NCI-H460 = tested on: NCI-H460
NCI-H522 = tested on: NCI-H522
OVCAR-3 = tested on: OVCAR-3
OVCAR-4 = tested on: OVCAR-4
OVCAR-5 = tested on: OVCAR-5
OVCAR-8 = tested on: OVCAR-8
RXF 393 = tested on: RXF 393
SF-268 = tested on: SF-268
SF-295 = tested on: SF-295
SF-539 = tested on: SF-539
SK-MEL-28 = tested on: SK-MEL-28
SK-MEL-2 = tested on: SK-MEL-2
SK-MEL-5 = tested on: SK-MEL-5
SK-OV-3 = tested on: SK-OV-3
SN12C = tested on: SN12C
SNB-19 = tested on: SNB-19
SNB-75 = tested on: SNB-75
SNB-78 = tested on: SNB-78
SR = tested on: SR
SW-620 = tested on: SW-620
TK-10 = tested on: TK-10
U-251 = tested on: U-251
UACC-257 = tested on: UACC-257
UACC-62 = tested on: UACC-62
UO-31 = tested on: UO-31
XF498 = tested on: XF498
DMS-114 = tested on: DMS-114
HCT-15 = tested on: HCT-15
HOP-18 = tested on: HOP-18
HOP-92 = tested on: HOP-92
RPMI-8226 = tested on: RPMI-8226

With `N=C(CC(=O)Nc1ccc(Cl)cc1)Nc1ccccc1` the GI50 (786-0) was > 100 µM (inactive), the GI50 (A498) was > 100 µM (inactive) and the GI50 (A549) was > 100 µM (inactive). The GI50 (ACHN) was > 100 µM (inactive), the GI50 (CAKI-1) was > 100 µM (inactive) and the GI50 (CCRF-CEM) was > 10 µM (inactive). The GI50 (COLO 205) was > 100 µM (inactive), the GI50 (DLD-1) was > 100 µM (inactive) and the GI50 (DMS-273) was > 100 µM (inactive). For the same molecule, the GI50 (EKVX) was > 100 µM (inactive), the GI50 (HCC 2998) was > 100 µM (inactive) and the GI50 (HCT-116) was > 100 µM (inactive). The GI50 (HL-60) was > 100 µM (inactive), the GI50 (HOP-62) was > 100 µM (inactive) and the GI50 (HT-29) was > 100 µM (inactive). For the same molecule, the GI50 (IGROV-1) was > 100 µM (inactive), the GI50 (K562) was > 100 µM (inactive) and the GI50 (KM-20L2) was > 100 µM (inactive). For the same molecule, the GI50 (KM12) was > 100 µM (inactive), the GI50 (LOX IMVI) was > 100 µM (inactive) and the GI50 (LXFL 529) was > 100 µM (inactive). The GI50 (M14) was > 100 µM (inactive), the GI50 (M19-MEL) was > 100 µM (inactive) and the GI50 (MOLT-4) was > 100 µM (inactive). The GI50 (Malme-3M) was > 100 µM (inactive), the GI50 (NCI-H226) was > 100 µM (inactive) and the GI50 (NCI-H23) was > 100 µM (inactive). For the same molecule, the GI50 (NCI-H460) was > 100 µM (inactive), the GI50 (NCI-H522) was > 100 µM (inactive) and the GI50 (OVCAR-3) was > 100 µM (inactive). The GI50 (OVCAR-4) was > 100 µM (inactive), the GI50 (OVCAR-5) was > 100 µM (inactive) and the GI50 (OVCAR-8) was > 100 µM (inactive). For the same molecule, the GI50 (RXF 393) was > 100 µM (inactive), the GI50 (SF-268) was > 100 µM (inactive) and the GI50 (SF-295) was > 100 µM (inactive). For the same molecule, the GI50 (SF-539) was > 100 µM (inactive), the GI50 (SK-MEL-28) was > 100 µM (inactive) and the GI50 (SK-MEL-2) was > 100 µM (inactive). For the same molecule, the GI50 (SK-MEL-5) was > 100 µM (inactive), the GI50 (SK-OV-3) was > 100 µM (inactive) and the GI50 (SN12C) was > 100 µM (inactive). For the same molecule, the GI50 (SNB-19) was > 100 µM (inactive), the GI50 (SNB-75) was > 100 µM (inactive) and the GI50 (SNB-78) was > 100 µM (inactive). For the same molecule, the GI50 (SR) was > 100 µM (inactive), the GI50 (SW-620) was > 100 µM (inactive) and the GI50 (TK-10) was > 100 µM (inactive). For the same molecule, the GI50 (U-251) was > 100 µM (inactive), the GI50 (UACC-257) was > 100 µM (inactive) and the GI50 (UACC-62) was > 100 µM (inactive). The GI50 (UO-31) was > 100 µM (inactive) and the GI50 (XF498) was > 100 µM (inactive).

For `COC(=O)CCC(=O)Nc1cc(Cl)ccc1Cl`, the GI50 (786-0) was > 100 µM (inactive), the GI50 (A549) was > 100 µM (inactive) and the GI50 (ACHN) was > 100 µM (inactive). The GI50 (CAKI-1) was > 100 µM (inactive), the GI50 (CCRF-CEM) was > 100 µM (inactive) and the GI50 (DLD-1) was > 100 µM (inactive). For the same molecule, the GI50 (DMS-114) was > 100 µM (inactive), the GI50 (EKVX) was > 100 µM (inactive) and the GI50 (HCC 2998) was > 100 µM (inactive). For the same molecule, the GI50 (HCT-116) was > 100 µM (inactive), the GI50 (HCT-15) was over 100 µM and the GI50 (HL-60) was > 100 µM (inactive). For the same molecule, the GI50 (HOP-18) was > 100 µM (inactive), the GI50 (HOP-62) was > 100 µM (inactive) and the GI50 (HOP-92) was > 100 µM (inactive). The GI50 (HT-29) was > 100 µM (inactive), the GI50 (IGROV-1) was > 100 µM (inactive) and the GI50 (K562) was > 100 µM (inactive). The GI50 (KM-20L2) was > 100 µM (inactive), the GI50 (KM12) was > 100 µM (inactive) and the GI50 (LOX IMVI) was > 100 µM (inactive). The GI50 (LXFL 529) was > 100 µM (inactive), the GI50 (M14) was > 100 µM (inactive) and the GI50 (M19-MEL) was > 100 µM (inactive). For the same molecule, the GI50 (MOLT-4) was > 100 µM (inactive), the GI50 (Malme-3M) was > 100 µM (inactive) and the GI50 (NCI-H226) was > 100 µM (inactive). The GI50 (NCI-H23) was > 100 µM (inactive), the GI50 (NCI-H460) was > 100 µM (inactive) and the GI50 (NCI-H522) was > 100 µM (inactive). The GI50 (OVCAR-3) was > 100 µM (inactive), the GI50 (OVCAR-4) was > 100 µM (inactive) and the GI50 (OVCAR-5) was > 100 µM (inactive). The GI50 (OVCAR-8) was > 100 µM (inactive), the GI50 (RPMI-8226) was > 100 µM (inactive) and the GI50 (RXF 393) was 30.2 µM (inactive). For the same molecule, the GI50 (SF-268) was > 100 µM (inactive), the GI50 (SF-295) was > 100 µM (inactive) and the GI50 (SF-539) was > 100 µM (inactive). For the same molecule, the GI50 (SK-MEL-28) was > 100 µM (inactive), the GI50 (SK-MEL-2) was > 100 µM (inactive) and the GI50 (SK-MEL-5) was > 100 µM (inactive). For the same molecule, the GI50 (SK-OV-3) was > 100 µM (inactive), the GI50 (SN12C) was > 100 µM (inactive) and the GI50 (SNB-19) was > 100 µM (inactive). For the same molecule, the GI50 (SNB-78) was > 100 µM (inactive), the GI50 (SR) was > 100 µM (inactive) and the GI50 (SW-620) was > 100 µM (inactive). For the same molecule, the GI50 (TK-10) was > 10 µM (inactive), the GI50 (U-251) was > 100 µM (inactive) and the GI50 (UACC-257) was > 100 µM (inactive). The GI50 (UACC-62) was > 100 µM (inactive), the GI50 (UO-31) was > 100 µM (inactive) and the GI50 (XF498) was > 100 µM (inactive).

For `COP(=O)(OC)C(=O)N1N(c2ccc([N+](=O)[O-])cc2)C(=O)C(C)NC1(NNc1ccc([N+](=O)[O-])cc1)P(=O)(OC)OC` (centres undefined), the GI50 (786-0) was > 100 µM (inactive), the GI50 (A498) was > 100 µM (inactive) and the GI50 (A549) was > 100 µM (inactive). The GI50 (ACHN) was > 100 µM (inactive), the GI50 (CAKI-1) was > 100 µM (inactive) and the GI50 (CCRF-CEM) was > 100 µM (inactive). For the same molecule, the GI50 (COLO 205) was > 100 µM (inactive), the GI50 (DLD-1) was > 100 µM (inactive) and the GI50 (DMS-114) was > 100 µM (inactive). For the same molecule, the GI50 (DMS-273) was > 100 µM (inactive), the GI50 (EKVX) was > 100 µM (inactive) and the GI50 (HCC 2998) was > 100 µM (inactive). For the same molecule, the GI50 (HCT-116) was > 100 µM (inactive), the GI50 (HCT-15) was over 100 µM and the GI50 (HL-60) was 64.6 µM (inactive). For the same molecule, the GI50 (HOP-62) was > 100 µM (inactive), the GI50 (HOP-92) was > 100 µM (inactive) and the GI50 (IGROV-1) was > 100 µM (inactive). The GI50 (K562) was > 100 µM (inactive), the GI50 (KM-20L2) was > 100 µM (inactive) and the GI50 (KM12) was > 100 µM (inactive). The GI50 (LOX IMVI) was > 100 µM (inactive), the GI50 (LXFL 529) was 57.8 µM (inactive) and the GI50 (M14) was > 100 µM (inactive). The GI50 (M19-MEL) was > 100 µM (inactive), the GI50 (MOLT-4) was > 100 µM (inactive) and the GI50 (Malme-3M) was > 100 µM (inactive). The GI50 (NCI-H226) was > 100 µM (inactive), the GI50 (NCI-H23) was > 100 µM (inactive) and the GI50 (NCI-H460) was > 100 µM (inactive). For the same molecule, the GI50 (NCI-H522) was > 100 µM (inactive), the GI50 (OVCAR-3) was > 100 µM (inactive) and the GI50 (OVCAR-4) was > 100 µM (inactive). The GI50 (OVCAR-5) was > 100 µM (inactive), the GI50 (OVCAR-8) was > 100 µM (inactive) and the GI50 (RPMI-8226) was > 100 µM (inactive). For the same molecule, the GI50 (SF-268) was > 100 µM (inactive), the GI50 (SF-539) was > 100 µM (inactive) and the GI50 (SK-MEL-28) was > 100 µM (inactive). The GI50 (SK-MEL-2) was > 100 µM (inactive), the GI50 (SK-MEL-5) was > 100 µM (inactive) and the GI50 (SN12C) was > 100 µM (inactive). The GI50 (SNB-19) was > 100 µM (inactive), the GI50 (SNB-75) was > 100 µM (inactive) and the GI50 (SR) was > 100 µM (inactive). The GI50 (SW-620) was > 100 µM (inactive), the GI50 (TK-10) was > 100 µM (inactive) and the GI50 (U-251) was > 100 µM (inactive). The GI50 (UACC-257) was > 100 µM (inactive), the GI50 (UACC-62) was > 100 µM (inactive) and the GI50 (UO-31) was > 100 µM (inactive). For the same molecule, the GI50 (XF498) was > 100 µM (inactive).
